Source: patent US20210323940A1 (OCEANS LTD., priority 2018, published 2021)

Columns and labels:
Assay type in all cases: cell-based, human
[1] = system: CCD1079SK (fibroblast, noncancerous but proliferating); test: CIMA assay (tetrazolium reduction, cell viability, 72 h); settings: CCD
Procedure: (§1) Prepared extracts were assessed following chronic exposure conditions in which cells were seeded at 2×10^3 cells/well (96 wells-plate) and incubated with test compounds for 72 h. Each compound was evaluated over a range of concentrations (0, 10, 25, 50 or 100 μg/ml). Cell proliferation was initially assessed using a standard colorimetric indicator of metabolic activity (CIMA) assay. In this assay, tetrazole reduction was evaluated as a measure of metabolic function that evaluates mitochondrial activity to determine the extent of cell proliferation within a culture. This assay is based on the reduction of yellow tetrazolium salt to purple formazan by mitochondrial reductases enzyme in viable cells, resulting in a color change that confers a change in absorbance. Seven human cell lines were selected for primary evaluation: U373 (glioblastoma-astrocytoma), A549 (lung carcinoma), THP-1 (acute monocytic leukemia), MCF7 (mammary gland adenocarcinoma), SKOV3 (ovarian adenocarcinoma), PC3 (prostate adenocarcinoma) and CCD1079SK (fibroblast, noncancerous but proliferating) (see FIG. 2 and Table 2). Results are expressed in Table 2 as % viability (means±standard deviation of three replicates), with LD50/IC50 values in Tables 3 and 6. […] The maximum DMSO concentration was 1% at 100 μg/ml with 5% SDS used as a known toxic inducer.
(§2) Experimental: Stock solutions of the test compounds were prepared in dimethylsulfoxide (DMSO) at 10 mg/ml and stored at −20° C. until used. This preparation ensures that the DMSO content delivered to cells in culture never exceeds 1%. Appropriate cells number, based on previous assays, were seeded in 96 well plate and incubated with test compounds (up to 8 log concentrations, 0 to 50 or 100 μg/ml) for 72 h. Cell proliferation was initially assessed using a standard colorimetric indicator of metabolic activity (CIMA) assay. In this assay, reduction of yellow tetrazolium salt (MTT) to purple formazan by mitochondrial reductases enzymes in viable cells were measured as change in absorbance (λ=500-600).
(§3) Seven human cell lines were evaluated: U373 (glioblastoma-astrocytoma), A549 (lung carcinoma), PC3 (prostate adenocarcinoma), THP1 (acute monocytic leukemia), MDA-MB-231 (mammary gland adenocarcinoma), SKOV3 (ovarian adenocarcinoma) and CCD1079Sk (normal skin fibroblast) cells.

[2] = system: THP-1 (acute monocytic leukemia); test: as above; settings: THP-1
Procedure: as §1, §2, §3

[3] = system: PC3 (prostate adenocarcinoma); test: as above; settings: PC3
Procedure: as §1, §2, §3

A549 (lung carcinoma) = test: as above; settings: A549
Procedure: as §1, §2, §3

[4] = system: U373 (glioblastoma-astrocytoma); test: as above; settings: U373
Procedure: as §1, §2, §3

[5] = system: SKOV3 (ovarian adenocarcinoma); test: as above; settings: SKOV
Procedure: as §1, §2, §3

[6] = system: MDA-MB-231 (mammary gland adenocarcinoma); test: CIMA assay (MTT, 72 h); settings: MDA-MB
Procedure: Experimental: Stock solutions of the test compounds were prepared in dimethylsulfoxide (DMSO) at 10 mg/ml and stored at −20° C. until used. This preparation ensures that the DMSO content delivered to cells in culture never exceeds 1%. […] Cell proliferation was initially assessed using a standard colorimetric indicator of metabolic activity (CIMA) assay. In this assay, reduction of yellow tetrazolium salt (MTT) to purple formazan by mitochondrial reductases enzymes in viable cells were measured as change in absorbance (λ=500-600).
as §3

CCCCCC(O)C(O)/C=C/C1CCCCCCCC(=O)O1 (racemic) [compound (I), 12,13-dihydroxy-10-octadecen-9-olide]
fold change viability (AVG) ([1]; 1 ug/mL): 1.00 | fold change viability (AVG) ([1]; 10 ug/mL): 0.92 | fold change viability (AVG) ([1]; 50 ug/mL): 0.99 | fold change viability (AVG) ([1]; 100 ug/mL): 0.18 | fold change viability (AVG) ([2]; 1 ug/mL): 1.09 | fold change viability (AVG) ([2]; 10 ug/mL): 0.95 | fold change viability (AVG) ([2]; 50 ug/mL): 0.77 | fold change viability (AVG) ([2]; 100 ug/mL): 0.50 | fold change viability (AVG) ([3]; 1 ug/mL): 1.03 | fold change viability (AVG) ([3]; 10 ug/mL): 0.96 | fold change viability (AVG) ([3]; 50 ug/mL): 1.01 | fold change viability (AVG) ([3]; 100 ug/mL): 0.19 | fold change viability (AVG) (A549 (lung carcinoma); 1 ug/mL): 1.11 | fold change viability (AVG) (A549 (lung carcinoma); 10 ug/mL): 1.09 | fold change viability (AVG) (A549 (lung carcinoma); 50 ug/mL): 1.08 | fold change viability (AVG) (A549 (lung carcinoma); 100 ug/mL): 0.72 | fold change viability (AVG) ([4]; 1 ug/mL): 0.92 | fold change viability (AVG) ([4]; 10 ug/mL): 0.86 | fold change viability (AVG) ([4]; 50 ug/mL): 0.69 | fold change viability (AVG) ([4]; 100 ug/mL): 0.03 | fold change viability (AVG) ([5]; 1 ug/mL): 1.04 | fold change viability (AVG) ([5]; 10 ug/mL): 1.05 | fold change viability (AVG) ([5]; 50 ug/mL): 1.01 | fold change viability (AVG) ([5]; 100 ug/mL): 0.92 | fold change viability (AVG) ([6]; 1 ug/mL): 1.10 | fold change viability (AVG) ([6]; 10 ug/mL): 1.05 | fold change viability (AVG) ([6]; 50 ug/mL): 0.72 | fold change viability (AVG) ([6]; 100 ug/mL): 0.21

CCCCCCCCCCCCOS(=O)(=O)[O-].[Na+] [SDS, reference compound]
average cell viability ([6]; positive control, 250 ug/ml): 14
